Several values for one entry are separate records, joined by “and”; a condition that tells them apart may be missing. Equal values may be shown once.
How the values were obtained:
hP2X2R = target: T1, hP2X2R (Homo sapiens, UniProt Q9UBL9); experiment: TEVC of ATP-induced currents, hP2X2R in X. laevis oocytes (steady-state protocol); format: cell-based
T1 construct: expressed in transfected cells; host or cells: Xenopus laevis oocytes (cRNA injection)
T1 sequence (Q9UBL9 1-471): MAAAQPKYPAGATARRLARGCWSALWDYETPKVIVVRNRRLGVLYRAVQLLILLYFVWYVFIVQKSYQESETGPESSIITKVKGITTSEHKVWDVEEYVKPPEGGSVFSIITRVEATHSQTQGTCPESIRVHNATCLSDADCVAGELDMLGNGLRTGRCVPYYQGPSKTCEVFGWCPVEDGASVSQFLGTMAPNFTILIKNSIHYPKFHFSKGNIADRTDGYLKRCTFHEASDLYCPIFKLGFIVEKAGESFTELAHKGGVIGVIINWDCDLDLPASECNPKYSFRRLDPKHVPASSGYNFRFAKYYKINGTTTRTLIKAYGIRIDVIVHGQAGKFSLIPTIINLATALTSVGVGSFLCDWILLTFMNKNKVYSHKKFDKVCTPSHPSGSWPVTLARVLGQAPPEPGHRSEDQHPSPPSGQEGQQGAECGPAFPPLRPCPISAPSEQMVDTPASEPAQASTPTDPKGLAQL
Excerpt: Oocyte expression plasmids encoding the wild-type (wt) and N-terminally His-tagged (His-) fusion constructs of the hP2X2R, hP2X3R, hP2X4R, and hP2X7R, and the mutant His-^20RMVL^23KVIV^23S^26N-hP2X1R, S^15V-rP2X3R, and His-S^15V-hP2X3R were the same as used in previous research ([Hausmann et al., 2006]; [Wolf et al., 2011]; [Hausmann et al., 2014]; [Obrecht et al., 2019]). In most cases, the N-terminal His-tagged variants of P2XRs were used here and in the previous studies to allow biochemical analyses on affinity-purified proteins using the same constructs. Although this was not required for the present study, it allows for better comparability with our previous studies. Capped cRNAs of different P2XRs were already available in the research group or were synthesized as previously described ([Schmalzing et al., 1991]; [Stolz et al., 2015]). cRNA was injected into collagenase-defolliculated X. laevis oocytes in aliquots of 41 nl or 23 nl (see Supplementary Table S1 for the amount of cRNA used for expression of the indicated P2XR) using a Nanoliter 2000 injector (World Precision Instruments, Sarasota, United States of America) as described previously ([Hausmann et al., 2014]; [Stolz et al., 2015]; [Obrecht et al., 2019]). To express the heteromeric hP2X2/3 receptor, cRNAs encoding His-hP2X2R and wt-hP2X3R were coinjected at a ratio (w/w) of 1:6. Oocytes were stored at 19°C in an oocyte ringer solution (ORi^+) containing 90 mM NaCl, 1 mM KCl, 1 mM CaCl2, 1 mM MgCl2, and 10 mM HEPES (Carl Roth, Karlsruhe, Germany) adjusted to pH 7.4 with NaOH and supplemented with 50 μg/ml gentamicin (AppliChem, Darmstadt, Germany). The procedures followed for the maintenance of and the surgical treatment for X. laevis adults were approved by the governmental animal care and use committee of the State Agency for Nature, Environment, and Consumer Protection (LANUV, Recklinghausen, Germany; reference no. 81-02.04.2019. A355), in compliance with Directive 2010/63/EU of the European Parliament and of the Council on the protection of animals used for scientific purpose.
Ion currents mediated by P2X receptors were evoked by the indicated concentration of ATP or α,β-meATP and were recorded 1 or 2 days after cRNA injection at ambient temperature at a holding potential of −60 mV by two-electrode voltage clamp (TEVC) as previously described ([Hausmann et al., 2006]). Calcium-free ORi^− solution (90 mM NaCl, 1 mM KCl, 2 mM MgCl2, 10 mM HEPES, pH 7.4) was used to avoid bias due to calcium-activated chloride channels (CaCC) endogenously expressed in X. laevis oocytes ([Miledi, 1982]; [Methfessel et al., 1986]). For recordings of wt-hP2X7R, the composition of the ORi^− solution was modified according to protocols described previously and contained 100 mM NaCl, 2.5 mM KCl, 1 mM MgCl2, 5 mM HEPES, pH 7.4 ([Klapperstück et al., 2000]). The oocytes were continuously superfused with ORi^− by gravity flow (5–10 ml/min). The agonists ATP or α,β-meATP and the investigated NSAIDs were diluted in ORi^− on the day of the recording. The following agonist concentrations were used for the different P2X subtypes: 1 μM ATP (hP2X1R mutant, hP2X3R, rP2X3R, S^15V-hP2X3R, and S^15V-rP2X3R); 10 μM ATP (hP2X2R and hP2X4R); 300 μM free ATP^4- (hP2X7R); and 1 μM α,β-meATP (hP2X2/3R). […]

COX1 = test system: COX1; design: method as in Warner et al., 1999; settings: ref Warner et al., 1999; cited from earlier work
[1] = cited from earlier work

SMILES	increase in hP2X2R current amplitude (potentiation) on co-application with ATP (hP2X2R; 10 µM ATP, compared to steady-state current in absence of the drug)	IC50 (hP2X2R; 10 µM ATP, steady-state protocol, * no inhibition, but potentiation)	Max. inhibition at 1 mM (hP2X2R; 10 µM ATP, * no inhibition, but potentiation)	agonist effect (current induced in the absence of ATP) (hP2X2R; 100 µM diclofenac, 300 µM FFA, absence of ATP)	IC50 (COX1)	plasma levels, intramuscular injection ([1]; injected intramuscularly, ref Drago et al., 2017)	maximum plasma levels, oral ([1]; oral application of 50–75 mg diclofenac, ref Kurowski et al., 1994, Kienzler et al., 2010)	plasma levels, transdermal application ([1]; transdermal application, ref Efe et al., 2014)	EC50 (hP2X2R; 10 µM ATP, concentration–response curve, read-out: half-maximal potentiation value)	plasma levels, transdermal, repetitive application ([1]; applied transdermally, even with repetitive application, ref Drago et al., 2017)
O=C(O)Cc1ccccc1Nc1c(Cl)cccc1Cl [Diclofenac, diclofenac]	1.7 fold	no inh.*	no inh.*	Neither 100 µM diclofenac nor 300 µM FFA induced current	[…]	approximately 1.8 μg/ml and ~6 μM	2.3–2.6 μg/ml and 7–8 μM	low nanomolar	–	–
O=C(O)c1ccccc1Nc1cccc(C(F)(F)F)c1 [Flufenamic acid, flufenamic acid]	–	–	–	–	–	–	–	–	158 µM	≤ 180 nM
